Square brackets hold non-standard residues; d marks the D form. Peptide text beside a SMILES is read from it. * marks the point of attachment. DOTA = O=C(O)CN1CCN(CC(=O)O)CCN(CC(=O)*)CCN(CC(=O)O)CC1; Gly(N-(3-F-4-Me-benzyl)) = Cc1ccc(CNCC(=O)*)cc1F; Butanoyl(4-(4-I-phenyl)) = O=C(CCCc1ccc(I)cc1)*; Gly(N-3-F-4-Me-benzyl) = Cc1ccc(CNCC(=O)O)cc1F; Api(1-amidino) = N=C(N)N1CCC(N)(C(=O)O)CC1; Hydrocinnamoyl(4-Me) = Cc1ccc(CCC(=O)*)cc1; Bip = N[C@@H](Cc1ccc(-c2ccccc2)cc1)C(=O)O; Hydrocinnamoyl(4-I) = O=C(CCc1ccc(I)cc1)*; HO(CH2CH2O)2CH2CH2CO = O=C(CCOCCOCCO)*; d2Nal = N[C@H](Cc1ccc2ccccc2c1)C(=O)O; Cha = N[C@@H](CC1CCCCC1)C(=O)O; N(octyl)Gly = CCCCCCCCNCC(=O)O; X5 = O=C(CNCc1ccc2ccccc2c1)*; Api = NC1(C(=O)O)CCNCC1; X13 = O=C(CNCC1CCSCC1)*; PEG2 = NCCOCCOCCC(=O)O; Ahx = NCCCCCC(=O)O; azaGly = NNC(=O)O; Sar = CNCC(=O)O
The molecules below were run against human kisspeptin receptor (Homo sapiens (Human), UniProt Q969F8) (assay: Human KISS1R binding assay (membrane competition binding)). Settings: 90 min at room temperature; competition with 0.2 nM [125I]-metastin (45-54); Flp-In T-Rex 293 kisspeptin membranes; metal complexes nonradioactive Ga, In, Lu; read-out: hKiSSR Binding Ki (90 min).
Procedure, shortened: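 Radioligand competition: 0.2 nM [125I]-metastin (45-54) displaced by test ligand (usually 0–10,000 nM) over 90 min at room temperature, pH 7.4 buffer with 0.1% BSA. Receptor source is crude membrane (5–10 μg) from tetracycline-induced Flp-In T-Rex 293 cells. Bound label filtered and counted; Ki from non-linear regression.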

Chain of human kisspeptin receptor (Q969F8 whole entry): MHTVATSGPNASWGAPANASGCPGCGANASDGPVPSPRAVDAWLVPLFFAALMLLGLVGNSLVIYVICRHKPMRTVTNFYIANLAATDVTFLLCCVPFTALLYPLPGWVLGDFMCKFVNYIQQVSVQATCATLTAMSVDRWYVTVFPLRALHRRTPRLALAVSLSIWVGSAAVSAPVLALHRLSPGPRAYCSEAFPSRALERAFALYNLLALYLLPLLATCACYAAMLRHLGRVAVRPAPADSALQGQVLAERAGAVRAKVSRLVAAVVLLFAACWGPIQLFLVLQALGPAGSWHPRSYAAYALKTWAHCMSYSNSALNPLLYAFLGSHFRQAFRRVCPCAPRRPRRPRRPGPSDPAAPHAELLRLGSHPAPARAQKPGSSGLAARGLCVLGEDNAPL

Ki [nM]	SMILES
< 10	CCCCCCCCNCC(=O)N1CCC(NC(=O)[C@H](CC(C)C)NC(=O)NNC(=O)[C@H](Cc2ccccc2)NC(=O)[C@@H](NC(=O)[C@H](CC(N)=O)NC(=O)[C@@H](Cc2ccc3ccccc3c2)NC(=O)[C@@H](Cc2ccc(O)cc2)NC(=O)CCCCCNC(=O)CN2CCN(CC(=O)O)CCN(CC(=O)O)CCN(CC(=O)O)CC2)[C@@H](C)O)(C(=O)N[C@H](Cc2c[nH]c3ccccc23)C(N)=O)CC1 [Compound 374] ({DOTA-Ahx}-[dY][d2Nal]NTF[azaGly]L[Api](N(octyl)Gly)[dW]-NH2)
> 100	CC(C)C[C@H](NC(=O)NNC(=O)[C@H](Cc1ccccc1)NC(=O)[C@@H](NC(=O)[C@H](CC(N)=O)NC(=O)[C@@H](Cc1ccc2ccccc2c1)NC(=O)[C@@H](Cc1ccc(O)cc1)NC(=O)CCCCCNC(=O)CN1CCN(CC(=O)O)CCN(CC(=O)O)CCN(CC(=O)O)CC1)[C@@H](C)O)C(=O)NC1(C(=O)N[C@H](Cc2c[nH]c3ccccc23)C(N)=O)CCN(C(=O)CNCC2CCSCC2)CC1 [Compound 375] ({DOTA-Ahx}-[dY][d2Nal]NTF[azaGly]L[Api](X13)[dW]-NH2)
10 to 100	CC(C)C[C@H](NC(=O)NNC(=O)[C@H](Cc1ccccc1)NC(=O)[C@@H](NC(=O)[C@H](CC(N)=O)NC(=O)[C@@H](Cc1ccc2ccccc2c1)NC(=O)[C@@H](Cc1ccc(O)cc1)NC(=O)CCCCCNC(=O)CN1CCN(CC(=O)O)CCN(CC(=O)O)CCN(CC(=O)O)CC1)[C@@H](C)O)C(=O)NC1(C(=O)N[C@H](Cc2c[nH]c3ccccc23)C(N)=O)CCN(C(=O)CNCc2ccc3ccccc3c2)CC1 [Compound 376] ({DOTA-Ahx}-[dY][d2Nal]NTF[azaGly]L[Api](X5)[dW]-NH2)
< 10	Cc1ccc(CNCC(=O)N2CCC(NC(=O)[C@H](CC(C)C)NC(=O)NNC(=O)[C@H](Cc3ccccc3)NC(=O)[C@@H](NC(=O)[C@H](CC(N)=O)NC(=O)[C@H](CCCCNC(=O)CN3CCN(CC(=O)O)CCN(CC(=O)O)CCN(CC(=O)O)CC3)NC(=O)[C@@H](Cc3ccc(O)cc3)NC(=O)CCOCCOCCO)[C@@H](C)O)(C(=O)N[C@@H](Cc3c[nH]c4ccccc34)C(N)=O)CC2)cc1F [Compound 379] ({HO(CH2CH2O)2CH2CH2CO}-[dY]K(DOTA)NTF[azaGly]L[Api](Gly(N-(3-F-4-Me-benzyl)))W-NH2)
< 10	CC(=O)N[C@H](Cc1ccc(O)cc1)C(=O)N[C@@H](CCCCNC(=O)CN1CCN(CC(=O)O)CCN(CC(=O)O)CCN(CC(=O)O)CC1)C(=O)N[C@@H](CC(N)=O)C(=O)N[C@H](C(=O)N[C@@H](Cc1ccccc1)C(=O)NNC(=O)N[C@@H](CC(C)C)C(=O)NC1(C(=O)N[C@@H](Cc2c[nH]c3ccccc23)C(N)=O)CCN(C(=O)CNCc2ccc(C)c(F)c2)CC1)[C@@H](C)O [Compound 380] (Ac-[dY]K(DOTA)NTF[azaGly]L[Api](Gly(N-(3-F-4-Me-benzyl)))W-NH2)
< 10	Cc1ccc(CNCC(=O)N2CCC(NC(=O)[C@H](CC(C)C)NC(=O)NNC(=O)[C@H](Cc3ccccc3)NC(=O)[C@@H](NC(=O)[C@H](CC(N)=O)NC(=O)[C@@H](Cc3c[nH]c4ccccc34)NC(=O)[C@@H](Cc3ccc(O)cc3)NC(=O)CCOCCOCCNC(=O)CN3CCN(CC(=O)O)CCN(CC(=O)O)CCN(CC(=O)O)CC3)[C@@H](C)O)(C(=O)N[C@@H](Cc3c[nH]c4ccccc34)C(N)=O)CC2)cc1F [Compound 382] ({DOTA-PEG2}-[dY][dW]NTF[azaGly]L[Api](Gly(N-(3-F-4-Me-benzyl)))W-NH2)
< 10	Cc1ccc(CNCC(=O)N2CCC(NC(=O)[C@H](CC(C)C)NC(=O)NNC(=O)[C@H](Cc3ccccc3)NC(=O)[C@@H](NC(=O)[C@H](CC(N)=O)NC(=O)[C@@H](Cc3c[nH]c4ccccc34)NC(=O)[C@@H](Cc3ccc(O)cc3)NC(=O)CCCCCNC(=O)CN3CCN(CC(=O)O)CCN(CC(=O)O)CCN(CC(=O)O)CC3)[C@@H](C)O)(C(=O)N[C@H](Cc3c[nH]c4ccccc34)C(N)=O)CC2)cc1F [Compound 383] ({DOTA-Ahx}-[dY][dW]NTF[azaGly]L[Api](Gly(N-(3-F-4-Me-benzyl)))[dW]-NH2)
< 10	CNCC(=O)N1CCC(NC(=O)[C@H](CC(C)C)NC(=O)NNC(=O)[C@H](Cc2ccccc2)NC(=O)[C@@H](NC(=O)[C@H](CC(N)=O)NC(=O)[C@H](CCCCNC(=O)CN2CCN(CC(=O)O)CCN(CC(=O)O)CCN(CC(=O)O)CC2)NC(=O)[C@@H](Cc2ccc(O)cc2)NC(=O)CCOCCOCCNC(=O)CNCc2ccc(C)c(F)c2)[C@@H](C)O)(C(=O)N[C@@H](Cc2c[nH]c3ccccc23)C(N)=O)CC1 [Compound 384] (H-[Gly(N-3-F-4-Me-benzyl)][PEG2][dY]K(DOTA)NTF[azaGly]L[Api](Sar)W-NH2)
< 10	CNCC(=O)N1CCC(NC(=O)[C@H](CC(C)C)NC(=O)NNC(=O)[C@H](Cc2ccccc2)NC(=O)[C@@H](NC(=O)[C@H](CC(N)=O)NC(=O)[C@H](CCCCNC(=O)CN2CCN(CC(=O)O)CCN(CC(=O)O)CCN(CC(=O)O)CC2)NC(=O)[C@@H](Cc2ccc(O)cc2)NC(=O)CNCc2ccc(C)c(F)c2)[C@@H](C)O)(C(=O)N[C@@H](Cc2c[nH]c3ccccc23)C(N)=O)CC1 [Compound 386] (H-[Gly(N-3-F-4-Me-benzyl)][dY]K(DOTA)NTF[azaGly]L[Api](Sar)W-NH2)
< 10	CNCC(=O)N1CCC(NC(=O)[C@H](CC(C)C)NC(=O)NNC(=O)[C@H](CC2CCCCC2)NC(=O)[C@@H](NC(=O)[C@H](CC(N)=O)NC(=O)[C@H](CCCCNC(=O)CN2CCN(CC(=O)O)CCN(CC(=O)O)CCN(CC(=O)O)CC2)NC(=O)[C@@H](Cc2ccc(O)cc2)NC(=O)CCOCCOCCNC(=O)CCc2ccc(C)cc2)[C@@H](C)O)(C(=O)N[C@@H](Cc2c[nH]c3ccccc23)C(N)=O)CC1 [Compound 387] ({Hydrocinnamoyl(4-Me)-PEG2}-[dY]K(DOTA)NT[Cha][azaGly]L[Api](Sar)W-NH2)
< 10	CNCC(=O)N1CCC(NC(=O)[C@H](CC(C)C)NC(=O)NNC(=O)[C@H](Cc2ccccc2)NC(=O)[C@@H](NC(=O)[C@H](CC(N)=O)NC(=O)[C@H](Cc2ccc(-c3ccccc3)cc2)NC(=O)[C@@H](Cc2ccc(O)cc2)NC(=O)CCCCCNC(=O)CN2CCN(CC(=O)O)CCN(CC(=O)O)CCN(CC(=O)O)CC2)[C@@H](C)O)(C(=O)N[C@H](Cc2c[nH]c3ccccc23)C(N)=O)CC1 [Compound 389] ({DOTA-Ahx}-[dY][Bip]NTF[azaGly]L[Api](Sar)[dW]-NH2)
< 10	CC(=O)N[C@H](Cc1ccc(O)cc1)C(=O)N[C@H](Cc1c[nH]c2ccccc12)C(=O)N[C@@H](CC(N)=O)C(=O)N[C@H](C(=O)N[C@@H](Cc1ccccc1)C(=O)NNC(=O)N[C@@H](CC(C)C)C(=O)NC1(C(=O)N[C@@H](Cc2c[nH]c3ccccc23)C(N)=O)CCN(C(=O)CNCc2ccc(C)c(F)c2)CC1)[C@@H](C)O [Compound 390] (Ac-[dY][dW]NTF[azaGly]L[Api](Gly(N-(3-F-4-Me-benzyl)))W-NH2)
< 10	CC(=O)N[C@H](Cc1ccc(O)cc1)C(=O)N[C@H](Cc1c[nH]c2ccccc12)C(=O)N[C@@H](CC(N)=O)C(=O)N[C@H](C(=O)N[C@@H](CC1CCCCC1)C(=O)NNC(=O)N[C@@H](CC(C)C)C(=O)NC1(C(=O)N[C@@H](Cc2c[nH]c3ccccc23)C(N)=O)CCN(C(=O)CNCc2ccc(C)c(F)c2)CC1)[C@@H](C)O [Compound 391] (Ac-[dY][dW]NT[Cha][azaGly]L[Api](Gly(N-(3-F-4-Me-benzyl)))W-NH2)
< 10	CC(=O)N[C@@H](Cc1ccccc1)C(=O)NNC(=O)N[C@@H](CC(C)C)C(=O)NC1(C(=O)N[C@@H](Cc2c[nH]c3ccccc23)C(N)=O)CCN(C(=O)CNCc2ccc(C)c(F)c2)CC1 [Compound 392] (Ac-F[azaGly]L[Api](Gly(N-(3-F-4-Me-benzyl)))W-NH2)
< 10	CNCC(=O)N1CCC(NC(=O)[C@H](CC(C)C)NC(=O)NNC(=O)[C@H](Cc2ccccc2)NC(=O)[C@@H](NC(=O)[C@H](CC(N)=O)NC(=O)[C@@H](Cc2ccc3ccccc3c2)NC(=O)[C@@H](Cc2ccc(O)cc2)NC(C)=O)[C@@H](C)O)(C(=O)N[C@@H](Cc2c[nH]c3ccccc23)C(N)=O)CC1 [Compound 393] (Ac-[dY][d2Nal]NTF[azaGly]L[Api](Sar)W-NH2)
< 10	CC(C)C[C@H](NC(=O)NNC(=O)[C@H](Cc1ccccc1)NC(=O)[C@@H](NC(=O)[C@H](CC(N)=O)NC(=O)[C@@H](Cc1ccc2ccccc2c1)NC(=O)[C@@H](Cc1ccc(O)cc1)NC(=O)CCOCCOCCNC(=O)CCc1ccc(I)cc1)[C@@H](C)O)C(=O)NC1(C(=O)N[C@@H](Cc2c[nH]c3ccccc23)C(N)=O)CCN(C(=N)N)CC1 [Compound 394] ({Hydrocinnamoyl(4-I)-PEG2}-[dY][d2Nal]NTF[azaGly]L[Api(1-amidino)]W-NH2)
< 10	CNCC(=O)N1CCC(NC(=O)[C@H](CC(C)C)NC(=O)NNC(=O)[C@H](Cc2ccccc2)NC(=O)[C@@H](NC(=O)[C@H](CC(N)=O)NC(=O)[C@@H](Cc2ccc3ccccc3c2)NC(=O)[C@@H](Cc2ccc(O)cc2)NC(=O)CCCc2ccc(I)cc2)[C@@H](C)O)(C(=O)N[C@@H](Cc2c[nH]c3ccccc23)C(N)=O)CC1 [Compound 395] ({Butanoyl(4-(4-I-phenyl))}-[dY][d2Nal]NTF[azaGly]L[Api](Sar)W-NH2)
< 10	CC(C)C[C@H](NC(=O)NNC(=O)[C@H](Cc1ccccc1)NC(=O)[C@@H](NC(=O)[C@H](CC(N)=O)NC(=O)[C@@H](Cc1ccc2ccccc2c1)NC(=O)[C@@H](Cc1ccc(O)cc1)NC(=O)CCOCCOCCNC(=O)CCc1ccc(I)cc1)[C@@H](C)O)C(=O)NC1(C(=O)N[C@@H](Cc2ccccc2)C(N)=O)CCN(C(=N)N)CC1 [Compound 396] ({Hydrocinnamoyl(4-I)-PEG2}-[dY][d2Nal]NTF[azaGly]L[Api(1-amidino)]F-NH2)
< 10	CC(C)C[C@H](NC(=O)NNC(=O)[C@H](Cc1ccccc1)NC(=O)[C@@H](NC(=O)[C@H](CC(N)=O)NC(=O)[C@@H](Cc1ccc2ccccc2c1)NC(=O)[C@@H](Cc1ccc(O)cc1)NC(=O)CCOCCOCCNC(=O)CCc1ccc(I)cc1)[C@@H](C)O)C(=O)NC1(C(=O)N[C@@H](Cc2ccc(O)cc2)C(N)=O)CCN(C(=N)N)CC1 [Compound 397] ({Hydrocinnamoyl(4-I)-PEG2}-[dY][d2Nal]NTF[azaGly]L[Api(1-amidino)]Y-NH2)
